Test results: patent publication US20250326794A1, “ANTI-CANCER LEUCINE-RICH PEPTIDES AND USES THEREOF” (KING'S COLLEGE LONDON, priority 2019, published 2025)

Assays:
[1] = tested on: HEK293T (human embryonic kidney cell); test: cells; conditions: 72 h
[2] = tested on: HMLER (human breast cancer bulk cell); test: cells; conditions: 72 h
Method in brief: (§1)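 MTT viability after 72 h exposure to 0–100 μM compound (final DMSO 0.5% or 0%), 5×10^3 cells/well; HMLER lines and MCF-10A in MEGM, U2OS in DMEM with 10% FBS. A550 normalized to matching vehicle controls; IC50 interpolated from dose–response curves.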

[3] = tested on: HMLER-shEcad (human breast cancer stem cell); test: cells; conditions: 72 h
Method in brief: as §1

[4] = tested on: MCF-10A (human breast epithelial cell); test: cells; conditions: 72 h
Method in brief: as §1

[5] = tested on: U2OS (human bone osteosarcoma); conditions: 72 h
Method in brief: as §1

[6] = Tryptophan fluorescent binding assay, POPC vesicles; conditions: 50 μM peptide, PBS pH 7.4, lipid per peptide
Method in brief: (§2)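 Peptide fixed at 50 μM, titrated with POPC or 3POPC/1POPG large unilamellar vesicles (100 nm extruded; 0-5000 μM lipid) in PBS pH 7.4. Tryptophan fluorescence (ex 280, em 300-450 nm) read after 60 min; lipid concentration giving 50% binding reported as lipid/peptide ratio.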

[7] = Tryptophan fluorescent binding assay, 3POPC/1POPG vesicles; conditions: 50 μM peptide, PBS pH 7.4, lipid per peptide
Method in brief: as §2

[8] = ANTS/DPX liposome leakage assay, POPC vesicles; format: biochemical; conditions: 0.5 mM vesicles; for Peptide Concentration-induced 50% ANTS/DPX leakage at pH 4.8, POPC Vesicle: pH 4.8, lipid per peptide; for Peptide Concentration-induced 50% ANTS/DPX leakage at pH 7.4, POPC Vesicle: pH 7.4, lipid per peptide
Method in brief: (§3)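 LUVs (100 nm extruded) of POPC or POPC:POPG 3:1, loaded with 5 mM ANTS/12.5 mM DPX, used at 0.5 mM lipid with peptide 0–20 μM in PBS pH 7.4 or HCl-adjusted PBS pH 4.8. Leakage read after 3 h (ex 350/em 510 nm) against 10% Triton maximum; 50% leakage expressed as lipid per peptide.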

[9] = ANTS/DPX liposome leakage assay, 3POPC/1POPG vesicles; format: biochemical; conditions: for Peptide Concentration-induced 50% ANTS/DPX leakage at pH 4.8, 3POPC/1POPG Vesicle / Peptide Concentration-induced 50% ANTS/DPX leakage at pH 7.4, 3POPC/1POPG Vesicle: 0.5 mM vesicles; for Peptide Concentration-induced 50% ANTS/DPX leakage at pH 4.8, 3POPC/1POPG Vesicle: pH 4.8, lipid per peptide; for Peptide Concentration-induced 50% ANTS/DPX leakage at pH 7.4, 3POPC/1POPG Vesicle: pH 7.4, lipid per peptide; for liposome leakage activity from anionic vesicle at pH 4.8 (in words): anionic versus zwitterionic vesicle
Method in brief: as §3

| SMILES | IC50 [1] [µM] | IC50 [2] [µM] | IC50 [3] [µM] | IC50 [4] [µM] | IC50 [5] [µM] | Lipid Concentration-induced 50% Peptide Binding, POPC Vesicle [6] [L/P] | Lipid Concentration-induced 50% Peptide Binding, 3POPC/1POPG Vesicle [7] [L/P] | Peptide Concentration-induced 50% ANTS/DPX leakage at pH 4.8, POPC Vesicle [8] [L/P] | Peptide Concentration-induced 50% ANTS/DPX leakage at pH 7.4, POPC Vesicle [8] [L/P] | Peptide Concentration-induced 50% ANTS/DPX leakage at pH 4.8, 3POPC/1POPG Vesicle [9] [L/P] | Peptide Concentration-induced 50% ANTS/DPX leakage at pH 7.4, 3POPC/1POPG Vesicle [9] [L/P] | liposome leakage activity from anionic vesicle at pH 4.8 (in words) [9] |
| --- | --- | --- | --- | --- | --- | --- | --- | --- | --- | --- | --- | --- |
| CC(C)C[C@H](NC(=O)CN)C(=O)N[C@@H](CC(C)C)C(=O)N[C@@H](CC(=O)O)C(=O)N[C@@H](CC(C)C)C(=O)N[C@@H](CC(C)C)C(=O)N[C@@H](CCC(=O)O)C(=O)N[C@@H](CC(C)C)C(=O)N[C@@H](CC(C)C)C(=O)N[C@@H](CC(C)C)C(=O)N[C@@H](CCCCN)C(=O)N[C@@H](C)C(=O)N[C@@H](C)C(=O)NCC(=O)N[C@@H](Cc1c[nH]c2ccccc12)C(N)=O [DEK] | 6.8 ± 0.85 | 1.14 ± 0.52 | 0.7 ± 0.07 | ≥ 100 | 19.9 ± 2.65 | 1.50 | 1.67 | 10 | 747 | 469 | 773 | relatively higher liposome leakage activity |
| CC(C)C[C@H](NC(=O)CN)C(=O)N[C@@H](CC(C)C)C(=O)N[C@@H](CCC(=O)O)C(=O)N[C@@H](CC(C)C)C(=O)N[C@@H](CC(C)C)C(=O)N[C@@H](CCC(=O)O)C(=O)N[C@@H](CC(C)C)C(=O)N[C@@H](CC(C)C)C(=O)N[C@@H](CC(C)C)C(=O)N[C@@H](CCC(=O)O)C(=O)N[C@@H](C)C(=O)N[C@@H](C)C(=O)NCC(=O)N[C@@H](Cc1c[nH]c2ccccc12)C(N)=O [EEE] | 50 | 6.25 ± 1.77 | 10.6 ± 3.46 | ≥ 100 | 78.8 ± 5.3 | 1.33 | 4.50 | 35 | 143 | 28 | 346 |  |
| CC(C)C[C@H](NC(=O)CN)C(=O)N[C@@H](CC(C)C)C(=O)N[C@@H](CCC(=O)O)C(=O)N[C@@H](CC(C)C)C(=O)N[C@@H](CC(C)C)C(=O)N[C@@H](CCC(=O)O)C(=O)N[C@@H](CC(C)C)C(=O)N[C@@H](CC(C)C)C(=O)N[C@@H](CC(C)C)C(=O)N[C@@H](Cc1c[nH]cn1)C(=O)N[C@@H](C)C(=O)N[C@@H](C)C(=O)NCC(=O)N[C@@H](Cc1c[nH]c2ccccc12)C(N)=O [EEH] | 12.9 ± 0.14 | 3.3 ± 0.14 | 3.6 ± 0.85 | ≥ 100 | 19.6 ± 3.96 | 0.50 | 0.50 | 58 | 738 | 168 | 755 | relatively higher liposome leakage activity |
| CC(C)C[C@H](NC(=O)CN)C(=O)N[C@@H](CC(C)C)C(=O)N[C@@H](CCC(=O)O)C(=O)N[C@@H](CC(C)C)C(=O)N[C@@H](CC(C)C)C(=O)N[C@@H](Cc1c[nH]cn1)C(=O)N[C@@H](CC(C)C)C(=O)N[C@@H](CC(C)C)C(=O)N[C@@H](CC(C)C)C(=O)N[C@@H](CCC(=O)O)C(=O)N[C@@H](C)C(=O)N[C@@H](C)C(=O)NCC(=O)N[C@@H](Cc1c[nH]c2ccccc12)C(N)=O [EHE] | 13 | 3.9 ± 0.28 | 2.55 ± 0.07 | ≥ 100 | 18.2 ± 1.06 | 0.44 | 0.44 | 75 | 952 | 384 | 706 | relatively higher liposome leakage activity |
| CC(C)C[C@H](NC(=O)CN)C(=O)N[C@@H](CC(C)C)C(=O)N[C@@H](CCCCN)C(=O)N[C@@H](CC(C)C)C(=O)N[C@@H](CC(C)C)C(=O)N[C@@H](Cc1c[nH]cn1)C(=O)N[C@@H](CC(C)C)C(=O)N[C@@H](CC(C)C)C(=O)N[C@@H](CC(C)C)C(=O)N[C@@H](CCCCN)C(=O)N[C@@H](C)C(=O)N[C@@H](C)C(=O)NCC(=O)N[C@@H](Cc1c[nH]c2ccccc12)C(N)=O [KHK] | 3.55 ± 0.78 | 2.59 ± 0.92 | 1.4 ± 0.14 |  | 12.9 ± 1.24 | 0.17 | 0.38 | 140 | 1153 | 53 | 193 |  |
| CC(C)C[C@H](NC(=O)CN)C(=O)N[C@@H](CC(C)C)C(=O)N[C@@H](CCCCN)C(=O)N[C@@H](CC(C)C)C(=O)N[C@@H](CC(C)C)C(=O)N[C@@H](CCCCN)C(=O)N[C@@H](CC(C)C)C(=O)N[C@@H](CC(C)C)C(=O)N[C@@H](CC(C)C)C(=O)N[C@@H](CCC(=O)O)C(=O)N[C@@H](C)C(=O)N[C@@H](C)C(=O)NCC(=O)N[C@@H](Cc1c[nH]c2ccccc12)C(N)=O [KKE] | 4.4 ± 0.14 | 2.05 ± 0.64 | 1.7 |  | 12.8 ± 1.2 | 0.48 | 0.44 | 143 | 1133 | 131 | 346 |  |
| CC(C)C[C@H](NC(=O)CN)C(=O)N[C@@H](CC(C)C)C(=O)N[C@@H](CCCCN)C(=O)N[C@@H](CC(C)C)C(=O)N[C@@H](CC(C)C)C(=O)N[C@@H](CCCCN)C(=O)N[C@@H](CC(C)C)C(=O)N[C@@H](CC(C)C)C(=O)N[C@@H](CC(C)C)C(=O)N[C@@H](Cc1c[nH]cn1)C(=O)N[C@@H](C)C(=O)N[C@@H](C)C(=O)NCC(=O)N[C@@H](Cc1c[nH]c2ccccc12)C(N)=O [KKH] | 4 ± 0.28 | 2.4 ± 0.85 | 2.2 ± 0.42 |  | 13.3 ± 0.99 | 0.83 | 0.48 | 164 | 2119 | 49 | 227 |  |
| CC(C)C[C@H](NC(=O)CN)C(=O)N[C@@H](CC(C)C)C(=O)N[C@@H](CCCCN)C(=O)N[C@@H](CC(C)C)C(=O)N[C@@H](CC(C)C)C(=O)N[C@@H](CCCCN)C(=O)N[C@@H](CC(C)C)C(=O)N[C@@H](CC(C)C)C(=O)N[C@@H](CC(C)C)C(=O)N[C@@H](CCCCN)C(=O)N[C@@H](C)C(=O)N[C@@H](C)C(=O)NCC(=O)N[C@@H](Cc1c[nH]c2ccccc12)C(N)=O [KKK] | 3.7 ± 0.14 | 1.57 ± 0.24 | 1.35 ± 0.4 |  | 9.65 ± 1.2 | 1.25 | 1.70 | 156 | 1369 | 81 | 115 |  |
